{"source": "patent US20200010910A1", "about": "“Cytotoxic Chemotherapy-Based Predictive Assays for Acute Myeloid Leukemia” (The Regents of The University of California, priority 2017, published 2020)", "key": {"[1]": {"experiment": "human plasma pharmacokinetics of [14C]carboplatin", "type": "in vivo", "procedure": "Two of the bladder cancer patients received two doses of [^14C]carboplatin, including the initial diagnostic microdose and a second microdose at the time of full therapeutic dose. This allowed us to compare the pharmacokinetics of carboplatin in plasma after both microdosing and therapeutic dosing (FIG. 11A). […] Therefore, microdosing and therapeutic dosing yield similar carboplatin pharmacokinetics in human patients.\nThe pharmacokinetics of carboplatin administered as a microdose was assessed in four patients (two with bladder cancer and two with NSLC) for the purpose of comparing interpatient variability and establishing the optimum time point for tumor biopsy sample acquisition."}, "H23 2A tumor xenograph": {"system": "H23 2A tumor xenograph", "experiment": "tumor response to therapeutic carboplatin", "type": "in vivo, nude mice", "conditions": "sensitive H23 2A xenograph; single IV 37.3 mg/kg; 14 days", "description": "(§1) Xenograft mouse tumors consisting of one carboplatin resistant and one sensitive tumor type were established for in vivo evaluation of carboplatin-DNA monoadduct formation and repair in tumor tissue and for in vivo evaluation of tumor response to therapeutic dosing with carboplatin. Tumor xenografts were established in 1-2 month old nude mice by injecting approximately one million cells into the left and right flanks, and allowed to develop tumors of less than 1 cm^3 over approximately 4 weeks prior to DNA adduct studies. Mice bearing resistant and sensitive tumors were exposed to either a microdose or therapeutic dose of carboplatin by tail vein injection. DNA isolated from tumor tissue was evaluated for carboplatin-DNA monoadduct frequency levels as a function of time. For tumor response, mice bearing resistant and sensitive tumors were therapeutically treated with a single IV injection of 37.3 mg/kg of carboplatin and then examined for tumor growth as assessed by measuring palpable tumors with a caliper and calculating tumor volume.\n(§2) Mice xenografted with sensitive (H232A) and resistant (A549) lung cancer cell lines were infused with a therapeutic dose of carboplatin to assess tumor response. The tumors were measured daily over 14 days post infusion (FIG. 10C). Tumor size was normalized as the ratio of tumor diameter to the tumor diameter measured on day 0 (no change=1.0). […]"}, "A549 tumor xenograph": {"system": "A549 tumor xenograph", "experiment": "tumor response to therapeutic carboplatin", "type": "in vivo, nude mice", "conditions": "resistant A549 xenograph; single IV 37.3 mg/kg; 14 days", "description": "as §1, §2"}, "[2]": {"conditions": "patients; cited from earlier work"}, "PDX Model BL0269": {"system": "PDX Model BL0269", "experiment": "drug-DNA adducts in PDX tumor by AMS", "type": "in vivo, NSG mice", "description": "(§3) Female NSG mice (5-8 weeks of age, body weight: 20 to 25 g) were obtained from Jackson Laboratories (CA, USA). All animals were kept under pathogen-free conditions and were allowed to acclimatize for at least 4 days prior to any experiments. PDX models bearing the indicated patient derived xenografts were created by subcutaneous injection at the flank of 1 mm^3 tumor tissue. To establish multiple PDXs to allow efficacy studies with multiple drugs, PDXs from passage 2-4 were minced into 1 mm^3 sections and injected subcutaneously into multiple mice. At least 3 mice were used for each treatment group. Tumors were allowed to grow to at about 100 mm^3 before being assessed for drug sensitivity or the induction of DNA adducts by the administration of a microdose or a therapeutic dose of labeled drug. To assess tumor response to chemotherapy, cisplatin was administered at 2 mg/kg IV every 7 days for a total of 3 cycles, or gemcitabine was administered at 150 mg/kg IP every 7 days for a total of 4 cycles. G/C combination chemotherapy consisted of the simultaneous administration of both drugs using the schema described above. Tumor growth was assessed by measuring palpable tumors with a caliper and calculating tumor volume. Drug-DNA adduct frequencies were measured in tumor tissue collected 24 hours after intravenous injection of labeled drug and stored at −80° C. until DNA isolation. DNA was isolated using a modified Wizard procedure (Promega), quantitated by spectrophotometry, and then stored frozen at −20° C. until AMS analysis. Ten micrograms of DNA per sample was converted to graphite and measured by AMS for 14C quantification as previously described.\n(§4) NSG mice bearing the indicated PDX tumors were injected with a microdose of ^14C-labeled carboplatin (FIG. 22A) or ^14C-labeled gemcitabine (FIG. 22B). The microdose of ^14C-labeled carboplatin was 0.375 mg/kg carboplatin, 50,000 dpm/g. The microdose of ^14C-labeled gemcitabine was 0.092 mg/kg gemcitabine, 1000 dpm/g. The doses of each drug administered to the mice were chosen to target 1 μM in plasma concentration of carboplatin and 0.3 μM in plasma concentration of gemcitabine. These plasma concentrations represent 1% of the approximate peak plasma concentration during human chemotherapy. Animals were sacrificed after 24 h and drug-DNA adduct frequency was determined from collected tumor tissue by AMS measurements of ^14C in tumor DNA. Carboplatin DNA-adduct levels correlate with PDX model sensitivity to cisplatin at 24 h after microdosing (FIG. 22A). Gemcitabine DNA-adduct levels correlate with PDX model sensitivity to gemcitabine at 24 h after microdosing (FIG. 22B). […] There is no significant difference in carboplatin-DNA monoadduct levels between the three resistant PDX models. […] We conclude that microdose induced carboplatin-DNA monoadducts predicts sensitivity to cisplatin chemotherapy, and microdose induced gemcitabine incorporation predicts sensitivity to gemcitabine chemotherapy.\n(§5) In this example we test whether gemcitabine/carboplatin (G/Carbo) combination therapy has an effect on the formation of drug-DNA adducts in this synergistic tumor model. In FIG. 23A, NGS mice bearing BL0645 xenographs were administered via tail vein injection a therapeutic dose of [^14C]carboplatin alone or a therapeutic dose of [^14C]carboplatin in combination with a therapeutic dose of gemcitabine. Carboplatin-DNA monoadducts were measured in tumor tissue 24 h after dosing. A therapeutic dose of the combination [^14C]carboplatin plus unlabeled gemcitabine leads to a significant increase in carboplatin-DNA monoadduct level (94.84±16.02 versus 209.6±64.66 adducts per 10^8 nucleotides, p=0.032) compared to treatment with carboplatin alone. In FIG. 23B, the same experiment was conducted in which the mice received a therapeutic dose of [^14C]gemcitabine alone or a therapeutic dose of [^14C]gemcitabine in combination with a therapeutic dose of unlabeled carboplatin. […]"}, "PDX Model BL0645": {"system": "PDX Model BL0645", "experiment": "drug-DNA adducts in PDX tumor by AMS", "type": "in vivo, NSG mice", "conditions": "24 h", "description": "as §3, §4, §5"}}, "data": [{"smiles": "N.N.O=C([O-])C1(C(=O)[O-])CCC1.[Pt+2]", "note": "[carboplatin]", "values": [{"measurement": "plasma half-life", "setting": "[1]; microdose, four patients", "value": "a few hours"}, {"measurement": "time to essential clearance from the blood", "setting": "[1]; microdose, four patients", "value": "≤ 24", "unit": "h"}, {"measurement": "difference in plasma elimination kinetics between therapeutic and microdoses", "setting": "[1]; two bladder cancer patients, 24 h", "value": "less than 2 fold"}, {"measurement": "tumor response (growth after chemotherapy)", "setting": "H23 2A tumor xenograph", "value": "did not display any growth"}, {"measurement": "tumor response (growth after chemotherapy)", "setting": "A549 tumor xenograph", "value": "continued to grow"}, {"measurement": "in vivo carboplatin half-life in patients", "setting": "[2]", "value": "1.3 to 6", "unit": "h"}, {"measurement": "Carboplatin-DNA monoadduct levels", "setting": "PDX Model BL0269; control experiment FIG. 23E, microdose single agent or G/Carbo combination", "value": "1.85±0.798 adducts per 10^8 nucleotides"}, {"measurement": "mean carboplatin-DNA monoadduct level", "setting": "PDX Model BL0269; microdose 0.375 mg/kg carboplatin, 24 h (FIG. 22A)", "value": "1.77±0.706 adducts per 10^8 nucleotides"}, {"measurement": "mean carboplatin-DNA monoadduct level", "setting": "PDX Model BL0645; microdose 0.375 mg/kg carboplatin alone or with gemcitabine 0.092 mg/kg", "value": "1.27±0.307 adducts per 10^8 nucleotides"}, {"measurement": "carboplatin-DNA monoadduct level", "setting": "PDX Model BL0645; therapeutic 37.5 mg/kg carboplatin alone or with gemcitabine 9.2 mg/kg", "value": "94.84±16.02 adducts per 10^8 nucleotides"}]}]}
